Measured values as given in PubChem BioAssay AID272 (DTP/NCI, 2004).
“And” between values parts separate entries of the source, which are not always exact repeats. Equal entries are not always repeated. Inconclusive results are not listed.

Test system: Lewis lung carcinoma i.m., BDF1 mice, T/C %
Assay: NCI In Vivo Anticancer Drug Screen. Data for tumor model Lewis Lung Carcinoma (intramuscular) in B6D2F1 (BDF1) mice
Method in brief: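 Mice carrying transplantable tumours received test compound. Survival or tumour size was recorded and expressed as the treated-group value (T) divided by the vehicle-treated control-group value (C).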

[1] = endpoint: mean tumor weight (est.), dose: 12.5 mg/kg/injection, schedule: Q01DX011 (ip), vehicle: saline with Tween-80, higher = larger tumour
[2] = endpoint: mean tumor weight (est.), dose: 25.0 mg/kg/injection, schedule: Q01DX011 (ip), vehicle: saline with Tween-80, higher = larger tumour
[3] = endpoint: mean tumor weight (est.), dose: 50.0 mg/kg/injection, schedule: Q01DX011 (ip), vehicle: saline with Tween-80, higher = larger tumour
[4] = endpoint: median survival time, dose: 6.25 mg/kg/injection, schedule: Q01DX011 (ip), vehicle: saline with Tween-80, higher = longer survival
[5] = endpoint: median survival time, dose: 12.5 mg/kg/injection, schedule: Q01DX011 (ip), vehicle: saline with Tween-80, higher = longer survival
[6] = endpoint: median survival time, dose: 20.0 mg/kg/injection, schedule: Q01DX011 (ip), vehicle: saline, higher = longer survival

Compound: O=C1C(=O)c2ccccc2C(O)=C1CC=C(Cl)Cl
- T/C (endpoint: mean tumor weight (est.), dose: 6.25 mg/kg/injection, schedule: Q01DX011 (ip), vehicle: saline with Tween-80, higher = larger tumour): 93 % of control
- T/C [1]: 86 % of control
- T/C [2]: 61 % of control
- T/C [3]: 79 % of control
- T/C (endpoint: mean tumor weight, dose: 3.75 mg/kg/injection, schedule: Q01DX011 (oral), vehicle: saline, higher = larger tumour): 40 % of control
- T/C (endpoint: mean tumor weight, dose: 7.5 mg/kg/injection, schedule: Q01DX011 (ip), vehicle: saline, higher = larger tumour): 54 % of control
- T/C (endpoint: mean tumor weight, dose: 7.5 mg/kg/injection, schedule: Q01DX011 (oral), vehicle: saline, higher = larger tumour): 41 % of control
- T/C (endpoint: mean tumor weight, dose: 10.0 mg/kg/injection, schedule: Q01DX011 (ip), vehicle: saline, higher = larger tumour): 102 % of control
- T/C (endpoint: mean tumor weight, dose: 12.5 mg/kg/injection, schedule: Q01DX011 (ip), vehicle: other, higher = larger tumour): 71 % of control
- T/C (endpoint: mean tumor weight, dose: 15.0 mg/kg/injection, schedule: Q01DX011 (ip), vehicle: saline, higher = larger tumour): 43 % of control
- T/C (endpoint: mean tumor weight, dose: 20.0 mg/kg/injection, schedule: Q01DX011 (ip), vehicle: saline, higher = larger tumour): 91 % of control
- T/C (endpoint: mean tumor weight, dose: 25.0 mg/kg/injection, schedule: Q01DX011 (ip), vehicle: other, higher = larger tumour): 88 % of control
- T/C (endpoint: mean tumor weight, dose: 30.0 mg/kg/injection, schedule: Q01DX011 (ip), vehicle: saline, higher = larger tumour): 30 % of control
- T/C (endpoint: mean tumor weight, dose: 40.0 mg/kg/injection, schedule: Q01DX011 (ip), vehicle: saline, higher = larger tumour): 82 % of control
- T/C (endpoint: mean tumor weight, dose: 50.0 mg/kg/injection, schedule: Q01DX011 (ip), vehicle: other, higher = larger tumour): 55 % of control
- T/C (endpoint: median survival time, dose: 3.75 mg/kg/injection, schedule: Q01DX011 (oral), vehicle: saline, higher = longer survival): 100 % of control
- T/C [4]: 89 % of control
- T/C (endpoint: median survival time, dose: 7.5 mg/kg/injection, schedule: Q01DX011 (ip), vehicle: saline, higher = longer survival): 111 % of control
- T/C (endpoint: median survival time, dose: 7.5 mg/kg/injection, schedule: Q01DX011 (oral), vehicle: saline, higher = longer survival): 101 % of control
- T/C [5]: 93 % of control
- T/C (endpoint: median survival time, dose: 15.0 mg/kg/injection, schedule: Q01DX011 (ip), vehicle: saline, higher = longer survival): 113 % of control
- T/C [6]: 87 % of control
- T/C (endpoint: median survival time, dose: 25.0 mg/kg/injection, schedule: Q01DX011 (ip), vehicle: saline with Tween-80, higher = longer survival): 89 % of control
- T/C (endpoint: median survival time, dose: 30.0 mg/kg/injection, schedule: Q01DX011 (ip), vehicle: saline, higher = longer survival): 108 % of control

Compound: S=P(N1CC1)(N1CC1)N1CC1
- T/C (endpoint: median survival time, dose: 1.5 mg/kg/injection, schedule: Q01DX011 (ip), vehicle: water, higher = longer survival): 92 % of control
- T/C (endpoint: median survival time, dose: 3.0 mg/kg/injection, schedule: Q01DX011 (ip), vehicle: water, higher = longer survival): 110 % of control and 119 % of control
- T/C (endpoint: median survival time, dose: 6.0 mg/kg/injection, schedule: Q01DX011 (ip), vehicle: water, higher = longer survival): 86 % of control

Compound: Cc1nc(N)sc1CCCl
- T/C (endpoint: mean tumor weight (est.), dose: 10.0 mg/kg/injection, schedule: Q01DX011 (ip), vehicle: saline, higher = larger tumour): 86 % of control
- T/C (endpoint: mean tumor weight (est.), dose: 20.0 mg/kg/injection, schedule: Q01DX011 (ip), vehicle: saline, higher = larger tumour): 105 % of control
- T/C (endpoint: mean tumor weight (est.), dose: 40.0 mg/kg/injection, schedule: Q01DX011 (ip), vehicle: saline, higher = larger tumour): 91 % of control
- T/C (endpoint: median survival time, dose: 10.0 mg/kg/injection, schedule: Q01DX011 (ip), vehicle: saline, higher = longer survival): 98 % of control
- T/C [6]: 104 % of control
- T/C (endpoint: median survival time, dose: 40.0 mg/kg/injection, schedule: Q01DX011 (ip), vehicle: saline, higher = longer survival): 104 % of control

Compound: Nc1ncnc2c1ncn2C1OC(CO)C(O)C1O (stereo not given)
- T/C (endpoint: mean tumor weight (est.), dose: 200.0 mg/kg/injection, schedule: Q01DX011 (ip), vehicle: saline, higher = larger tumour): 65 % of control
- T/C (endpoint: mean tumor weight (est.), dose: 400.0 mg/kg/injection, schedule: Q01DX011 (ip), vehicle: saline, higher = larger tumour): 63 % of control
- T/C (endpoint: mean tumor weight (est.), dose: 600.0 mg/kg/injection, schedule: Q01DX011 (ip), vehicle: saline, higher = larger tumour): 15 % of control
- T/C (endpoint: median survival time, dose: 200.0 mg/kg/injection, schedule: Q01DX011 (ip), vehicle: saline, higher = longer survival): 119 % of control
- T/C (endpoint: median survival time, dose: 400.0 mg/kg/injection, schedule: Q01DX011 (ip), vehicle: saline, higher = longer survival): 86 % of control

Compound: Nc1nc(=S)c2[nH]cnc2[nH]1
- T/C (endpoint: mean tumor weight, dose: 0.12 mg/kg/injection, schedule: Q01DX011 (ip), vehicle: other, higher = larger tumour): 105 % of control
- T/C (endpoint: mean tumor weight, dose: 0.25 mg/kg/injection, schedule: Q01DX011 (ip), vehicle: other, higher = larger tumour): 93 % of control
- T/C (endpoint: mean tumor weight, dose: 0.5 mg/kg/injection, schedule: Q01DX011 (ip), vehicle: other, higher = larger tumour): 76 % of control
- T/C (endpoint: median survival time, dose: 0.12 mg/kg/injection, schedule: Q01DX011 (ip), vehicle: other, higher = longer survival): 97 % of control and 106 % of control
- T/C (endpoint: median survival time, dose: 0.25 mg/kg/injection, schedule: Q01DX011 (ip), vehicle: other, higher = longer survival): 116 % of control and 121 % of control
- T/C (endpoint: median survival time, dose: 0.5 mg/kg/injection, schedule: Q01DX011 (ip), vehicle: other, higher = longer survival): 116 % of control

Compound: O=[N+]([O-])c1cc(Cl)cc2c1nc(NCCO)c1ccccc12
- T/C [1]: 70 % of control
- T/C [2]: 43 % of control
- T/C [5]: 98 % of control

Compound: Nc1ncnc2c1ccn2C1OC(CO)C(O)C1O (stereo not given)
- T/C (endpoint: median survival time, dose: 0.1 mg/kg/injection, schedule: Q01DX011 (ip), vehicle: steriod suspending solution, higher = longer survival): 90 % of control
- T/C (endpoint: median survival time, dose: 0.19 mg/kg/injection, schedule: Q01DX011 (ip), vehicle: steriod suspending solution, higher = longer survival): 101 % of control
- T/C (endpoint: median survival time, dose: 0.25 mg/kg/injection, schedule: Q01DX011 (ip), vehicle: carboxymethylcellulose (CMC), higher = longer survival): 106 % of control
- T/C (endpoint: median survival time, dose: 0.38 mg/kg/injection, schedule: Q01DX011 (ip), vehicle: steriod suspending solution, higher = longer survival): 92 % of control
- T/C (endpoint: median survival time, dose: 0.5 mg/kg/injection, schedule: Q01DX009 (ip), vehicle: Klucel (hydroxypropylcellulose) (HPC), higher = longer survival): 98 % of control
- T/C (endpoint: median survival time, dose: 0.5 mg/kg/injection, schedule: Q01DX011 (ip), vehicle: carboxymethylcellulose (CMC), higher = longer survival): 100 % of control
- T/C (endpoint: median survival time, dose: 0.75 mg/kg/injection, schedule: Q01DX011 (ip), vehicle: steriod suspending solution, higher = longer survival): 86 % of control
- T/C (endpoint: median tumor weight (est.), dose: 0.1 mg/kg/injection, schedule: Q01DX011 (ip), vehicle: steriod suspending solution, higher = larger tumour): 70 % of control
- T/C (endpoint: median tumor weight (est.), dose: 0.19 mg/kg/injection, schedule: Q01DX011 (ip), vehicle: steriod suspending solution, higher = larger tumour): 96 % of control
- T/C (endpoint: median tumor weight (est.), dose: 0.38 mg/kg/injection, schedule: Q01DX011 (ip), vehicle: steriod suspending solution, higher = larger tumour): 70 % of control
- T/C (endpoint: median tumor weight (est.), dose: 0.75 mg/kg/injection, schedule: Q01DX011 (ip), vehicle: steriod suspending solution, higher = larger tumour): 84 % of control

Compound: Oc1c(Cl)cc(Cl)c2cccnc12
- T/C (endpoint: mean tumor weight, dose: 6.25 mg/kg/injection, schedule: Q01DX011 (ip), vehicle: saline with Tween-80, higher = larger tumour): 60 % of control
- T/C (endpoint: mean tumor weight, dose: 12.5 mg/kg/injection, schedule: Q01DX011 (ip), vehicle: saline with Tween-80, higher = larger tumour): 19 % of control
- T/C [4]: 122 % of control

Compound: OCCNC1c2ccccc2-c2ccccc21
- T/C [2]: 90 % of control
- T/C [3]: 91 % of control
- T/C (endpoint: mean tumor weight (est.), dose: 100.0 mg/kg/injection, schedule: Q01DX011 (ip), vehicle: saline with Tween-80, higher = larger tumour): 67 % of control
- T/C (endpoint: median survival time, dose: 50.0 mg/kg/injection, schedule: Q01DX011 (ip), vehicle: saline with Tween-80, higher = longer survival): 112 % of control
